Reference: US7638648B2, “Compounds having selective cytochrome P450RAI-1 or selective cytochrome P450RAI-2 inhibitory activity and methods of obtaining the same” (Allergan Inc., priority 2003, dated 2009)

Key:
[1] = molecular target: T1, P450RAI-1 (Homo sapiens, UniProt O43174); assay: P450RAI-1 cell-based inhibitor assay (inhibition of all-trans-RA metabolism); conditions: P450RAI-1 stably transfected HeLa cells, [3H]-RA, 3 hours at 37° C.; read-out: P450RAI-1 Whole cell IC50
T1 construct: expressed in transfected cells; host or cells: HeLa
T1 sequence (O43174 1-497): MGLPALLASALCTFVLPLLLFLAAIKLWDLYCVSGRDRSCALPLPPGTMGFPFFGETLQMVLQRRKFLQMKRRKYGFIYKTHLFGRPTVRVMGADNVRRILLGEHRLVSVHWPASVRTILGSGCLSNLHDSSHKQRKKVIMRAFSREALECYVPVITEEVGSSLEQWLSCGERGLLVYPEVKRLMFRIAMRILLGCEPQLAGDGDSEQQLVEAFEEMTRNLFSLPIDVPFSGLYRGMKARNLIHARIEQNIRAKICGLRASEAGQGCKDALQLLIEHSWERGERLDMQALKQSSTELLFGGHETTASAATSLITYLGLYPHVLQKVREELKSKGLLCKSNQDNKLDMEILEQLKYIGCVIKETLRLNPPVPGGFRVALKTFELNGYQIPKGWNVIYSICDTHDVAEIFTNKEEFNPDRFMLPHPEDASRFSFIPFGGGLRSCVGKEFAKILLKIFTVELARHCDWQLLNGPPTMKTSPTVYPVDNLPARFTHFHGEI
Method: (§1) P450RAI-1 and P450RAI-2 Cell-Based Inhibitor Assay:
(§2) P450RAI-1 stably transfected HeLa cells, or P450RAI-2 stably transfected HeLa cells, as applicable, are maintained in […] tissue culture dishes in Modified Eagle's Medium (MEM) containing 10% Fetal Bovine Serum (FBS) and 100 μg/ml hygromycin. Exponentially growing cells are harvested by incubating in trypsin. Cells are then washed with 1× Phosphate Buffered Saline (PBS) and plated in a 48-well plate at 5×10^5 cells in 0.2 ml MEM medium containing 10% FBS and 0.05 μCi [^3H]—RA in the presence or absence of increasing concentrations of the test compounds. The compounds are diluted in 100% DMSO and then added in triplicate wells at either 10, 1 or 0.1 μM final concentration. As a positive control for RA metabolism inhibition, cells are also incubated with ketoconazole at 100, 10 and 1 μM. Cells are incubated for 3 hours at 37° C. The retinoids are then extracted using the procedure of Bligh et al. (1959) Canadian Journal of Biochemistry 37, 911-917, modified by using methylenechloride instead of chloroform. The publication Bligh et al. (1959) Canadian Journal of Biochemistry 37, 911-917 is specifically incorporated herein by reference. The water soluble radioactivity is quantified using a β-scintillation counter. […]

[2] = molecular target: T2, RAR γ (Homo sapiens, UniProt P13631); assay: RARγ EC50/efficacy (Table 1); type: cell-based; conditions: value in parentheses
T2 sequence (P13631 1-454): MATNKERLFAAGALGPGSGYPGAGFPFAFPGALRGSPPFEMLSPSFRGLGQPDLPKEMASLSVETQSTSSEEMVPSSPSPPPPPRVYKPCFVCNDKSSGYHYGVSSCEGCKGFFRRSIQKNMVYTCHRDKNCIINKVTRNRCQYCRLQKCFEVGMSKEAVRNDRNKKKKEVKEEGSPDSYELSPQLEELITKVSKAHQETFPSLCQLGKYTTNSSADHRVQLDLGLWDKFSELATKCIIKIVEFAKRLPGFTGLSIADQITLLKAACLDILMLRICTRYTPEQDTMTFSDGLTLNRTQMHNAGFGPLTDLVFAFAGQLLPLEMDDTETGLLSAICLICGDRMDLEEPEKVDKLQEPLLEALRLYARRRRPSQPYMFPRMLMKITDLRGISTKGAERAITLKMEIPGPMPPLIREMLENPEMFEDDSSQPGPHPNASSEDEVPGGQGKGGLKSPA

[3] = molecular target: T3, RAR β (Homo sapiens, UniProt P10826); assay: RARβ binding Kd (Table 1); conditions: last item of cell
T3 sequence (P10826 1-455): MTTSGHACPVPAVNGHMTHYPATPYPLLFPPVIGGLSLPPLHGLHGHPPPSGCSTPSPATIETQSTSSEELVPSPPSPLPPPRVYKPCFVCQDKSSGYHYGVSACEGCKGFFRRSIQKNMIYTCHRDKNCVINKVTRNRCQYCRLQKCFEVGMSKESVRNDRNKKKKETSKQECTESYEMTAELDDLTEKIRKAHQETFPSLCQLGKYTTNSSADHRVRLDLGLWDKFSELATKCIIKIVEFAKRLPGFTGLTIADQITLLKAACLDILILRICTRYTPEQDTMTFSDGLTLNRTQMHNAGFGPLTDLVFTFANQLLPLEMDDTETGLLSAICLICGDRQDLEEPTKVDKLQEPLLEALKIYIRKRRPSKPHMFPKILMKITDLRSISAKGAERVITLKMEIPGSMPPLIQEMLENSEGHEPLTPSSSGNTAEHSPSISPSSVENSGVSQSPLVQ

[4] = molecular target: T4, RAR α (Homo sapiens, UniProt P10276); assay: RARα binding Kd (Table 1); conditions: last item of cell
T4 sequence (P10276 1-462): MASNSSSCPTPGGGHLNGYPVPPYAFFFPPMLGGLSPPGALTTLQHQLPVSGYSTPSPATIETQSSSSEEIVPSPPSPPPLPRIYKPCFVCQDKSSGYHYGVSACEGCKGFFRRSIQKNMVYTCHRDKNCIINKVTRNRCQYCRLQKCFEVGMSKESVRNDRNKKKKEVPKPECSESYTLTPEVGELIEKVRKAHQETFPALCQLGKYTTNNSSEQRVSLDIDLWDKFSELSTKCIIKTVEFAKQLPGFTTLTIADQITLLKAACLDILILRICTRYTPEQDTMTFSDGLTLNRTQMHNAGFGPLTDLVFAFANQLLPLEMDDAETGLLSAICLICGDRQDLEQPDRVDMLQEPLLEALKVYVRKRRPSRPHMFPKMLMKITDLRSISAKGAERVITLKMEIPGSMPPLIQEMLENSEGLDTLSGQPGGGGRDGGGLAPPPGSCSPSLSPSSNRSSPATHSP

[5] = molecular target: T2, RAR γ; assay: RARγ binding Kd (Table 1); conditions: last item of cell
[6] = molecular target: T5, P450RAI-2 (Homo sapiens, UniProt Q9NR63); assay: P450RAI-2 cell-based inhibitor assay (inhibition of all-trans-RA metabolism); conditions: P450RAI-2 stably transfected HeLa cells, [3H]-RA, 3 hours at 37° C.; read-out: P450RAI-2 Whole cell IC50
T5 construct: expressed in transfected cells; host or cells: HeLa
T5 sequence (Q9NR63 1-512): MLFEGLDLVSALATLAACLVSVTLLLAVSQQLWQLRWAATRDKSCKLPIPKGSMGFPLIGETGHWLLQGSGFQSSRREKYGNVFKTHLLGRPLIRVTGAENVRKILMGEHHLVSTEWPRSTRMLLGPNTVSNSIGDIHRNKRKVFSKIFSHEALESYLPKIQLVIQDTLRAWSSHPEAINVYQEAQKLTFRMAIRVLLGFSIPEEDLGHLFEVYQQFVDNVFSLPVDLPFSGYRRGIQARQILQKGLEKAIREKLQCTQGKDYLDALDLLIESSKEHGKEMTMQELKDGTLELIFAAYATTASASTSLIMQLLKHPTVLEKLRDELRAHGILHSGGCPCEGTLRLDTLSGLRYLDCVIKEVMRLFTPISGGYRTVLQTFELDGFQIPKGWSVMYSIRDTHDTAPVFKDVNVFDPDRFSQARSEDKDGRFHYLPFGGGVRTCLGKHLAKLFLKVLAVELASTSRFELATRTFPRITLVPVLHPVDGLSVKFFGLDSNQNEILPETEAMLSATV
Method: as §1, §2

CC(C)c1cc(C(=O)Oc2ccc(/C=C/C(=O)O)cc2)cc2c1OC(C)(C)CC2(C)C [Compound 16, 8-Isopropyl-2,2,4,4-tetramethyl-chroman-6-carboxylic acid 4-(2-carboxy-vinyl)-phenyl ester]
IC50 [1]: 1.3 µM

C=Cc1c(C)c(C#Cc2ccc(CC(=O)O)cc2)cc(C(C)(C)C)c1OC(C)C [Compound 46, [4-(5-tert-Butyl-4-isopropoxy-2-methyl-3-vinyl-phenylethynyl)-phenyl]-acetic acid]
RAR γ (EFFICACY) [2]: 68

CN(C1CC1)C1CCC(C)(C)c2cc(C#Cc3ccc(/C=C/C(=O)O)cc3)cc(C3CC3)c21 (stereo not drawn) [Compound 48, 3-{4-[4-Cyclopropyl-5-(cyclopropyl-methyl-amino)-8,8-dimethyl-5,6,7,8-tetrahydro-naphthalen-2-ylethynyl]-phenyl}-acrylic acid]
Kd [3]: > 10 µM
Kd [4]: > 10 µM
Kd [5]: > 10 µM

CC(C(=O)O)c1ccc(C#Cc2cc(C3CC3)c3c(c2)C(C)(C)CCC3N(C)C2CC2)cc1 (stereo not drawn) [Compound 49, 2-{4-[4-Cyclopropyl-5-(cyclopropyl-methyl-amino)-8,8-dimethyl-5,6,7,8-tetrahydro-naphthalen-2-ylethynyl]-phenyl}-propionic acid]
IC50 [6]: > 10 µM
